From patent US12193441B2, “Antimicrobial mixtures comprising at least one hydroxyphenone derivative” (SYMRISE AG, priority 2018, dated 2025)

system: not given; experiment: not given; settings: chemical in vitro assay; constituent of Tagetes mendocina; cited from earlier work

In the case of `CC(=O)c1ccc(O)cc1` [4-Hydroxyacetophenone], the antioxidant activity is listed as “one of the active constituents”.

system: mold growth on moist alfalfa hay; experiment: not given; settings: preservation of moist alfalfa hay; cited from earlier work

In the case of `CC(=O)c1ccc(O)cc1` [4-Hydroxyacetophenone], the “prevention of mold growth” value is listed as “not prevent mold growth”.

system: subcutaneous inflammation; experiment: not given; settings: administered intraperitoneally; cited from earlier work

For `CC(=O)c1ccc(O)cc1` [4-Hydroxyacetophenone], the “reduction of subcutaneous inflammation” value is listed as “one of the active compounds reducing subcutaneous inflammation”.

system: A. brasiliensis; experiment: Minimum Inhibitory Concentration (MIC) and Kull synergy index against A. brasiliensis; type: cell-based; parameters: unit not given here; settings: not given
Excerpt: To calculate the synergism between compounds of formula (I) and other antimicrobial actives, the Kull equation^1 2 was used SI=(Cmixture×PA)/CA+(Cmixture×PB)/CB (I) • where • SI is the Synergy Index according to Kull^1), 2) • CA is the […] for substance A • CB is the cell count for substance B • Cmixture is the cell count for the mixture of substances A and B • PA is the proportion of the substance A in the mixture • PB is the proportion of the substance B in the mixture. ^1 Kull, F. C., Eismann, P. C., Sylvestrowicz, H. D., and R. L. Mayer (1961). Mixtures of Quaternary Ammonium Compounds and Long-chain Fatty Acids as Antifungal Agents. Applied Microbiology 9, 538-541.^2 Steinberg, D. C. (2000). Measuring Synergy. Cosmetics & Toiletries 115 (11), 59-62.
Antimicrobil activity was evaluated by determining the Minimum Inhibitory Concentration (MIC) representing the lowest concentration of a chemical which prevents visible growth of a bacterium.
The MIC values were determined by preparing solutions of the chemical in vitro at increasing concentrations, incubating the solutions with the separate batches of cultured bacteria, and measuring the results using agar dilution or broth microdilution. Results have been graded into susceptible (often called sensitive), intermediate, or resistant to a particular antibiotic by using a cutoff point. Cut off points are agreed upon values, published in guidelines of a reference body, such as the U.S. Clinical and Laboratory Standards Institute (CLSI), the British Society for Antimicrobial Chemotherapy (BSAC) or the European Committee on Antimicrobial Susceptibility Testing (EUCAST).

In the case of `C/C=C/C=C/C(=O)[O-].[K+]` [Potassium sorbate], the “MIC (Comparison: MIC values for the actives taken alone)” value is reported as 5000.

same assay, conditions: active taken alone; A. brasiliensis

Point of comparison: `O=C([O-])c1ccccc1.[Na+]` [Sodium benzoate], “MIC (Comparison: MIC values for the actives taken alone)” value 10.000. Against it:
- OCCCO [1,3-Propanediol] — higher, 200.000
- CC(=O)c1ccc(O)cc1 [4-Hydroxyacetophenone] — higher, 2500
- Cc1cc(O)ccc1C(C)C [4-Isopropyl-3-methylphenol] — higher, 250
- OCc1ccccc1 [Benzyl alcohol] — higher, 5000
- O=[N+]([O-])C(Br)(CO)CO [Bronopol, 2-bromo-2-nitro-1,3-propanediol] — higher, 2000
- CCCCCCCC(=O)NCC(=O)O [Capryloyl glycine] — higher, 60.000
- CC(C)(C)C(=O)C(Oc1ccc(Cl)cc1)n1ccnc1 (stereo not shown) [Climbazol, Crinipan, Climbazol] — higher, 64
- CCCCCCCCCCCC(=O)N[C@@H](CCCN=C(N)N)C(=O)OCC.Cl [Ethyl lauroyl arginate HCl] — lower, 2.000
- O=C(O)CN(CCN(CC(=O)O)CC(=O)O)CC(=O)O [Ethylene diamine tetra acetate (EDTA), Ethylene diamine tetra acetate] — higher, 40.000
- CCCCCCCCCC(=O)OCC(O)CO (stereo not shown) [Glyceryl caprate] — lower, 2.000
- CCCCNC(=O)OCC#CI [IPBC, 3-Iodo-2-propynylbutylcarbamate, 3-Iodo-2-propynylbutylcarbamate] — lower, 1
- Cc1cc(CC(C)CC(C)(C)C)n(O)c(=O)c1.NCCO (stereo not shown) [Piroctone oleamine, Octopyrox, 1-hydroxy-4-methyl-6-(2,4,4-trimethylpentyl)-2-(1H)-pyridinone monoethanolamine salt] — higher, 64
- Oc1cc(Cl)ccc1Oc1ccc(Cl)cc1Cl [Triclosan, 2,4,4′-trichloro-2′-hydroxy-diphenyl ether] — higher, 32
- C=CCCCCCCCCC(=O)NCC(=O)O [Undecenoyl glycin] — lower, 5.000
- C=CCCCCCCCCC(=O)O [Undecylenic acid, Undec-10-enoic acid, Undec-10-enoic acid] — higher, 500
- Glceryl caprylate — lower, 2.000
- Sorbitan caprylate — higher, 4000
